Results from US20180280447A1, “PLACENTA-DERIVED CELLS EXCRETING C3 OR C1R COMPLEMENT AND COMPOSITION CONTAINING SAME” (SUNGKWANG MEDICAL FOUNDATION, priority 2014, published 2018).

Tests used:
Format in all cases: cell-based, human
hPDCs [1] = assay: Notch/DLL1 signaling in nerve/neuron induction of hPDCs
Description: (§1) Quantitative RT-PCR: Total RNA was isolated from cells using TRizol (Invitrogen). cDNA was synthesized from 1 μg of total RNA using Superscript II reverse transcriptase, Oligo-d(T) 12-18 primer, DTT, and dNTPs according to the manufacturer's protocol. RT-PCR was performed by using a Pre-Mix kit (Bioneer). A PCR product was electrophoresed on a 2% agarose gel using RedGel (Biotium, Inc), and visualized by a UV-transilluminator.
To suppress FGF4 downstream signaling, hPDCs were cultured for 1 hour in a 10% FBS-supplemented alpha-MEM medium pretreated with or without 5 μM of ERK-inhibiting U0126 or 10 μM of JNK-inhibiting SP600125 (Calbiochem) in dimethyl sulfoxide (DMSO), and then stimulated with 25 ng/mL FGF4 for 3 days. To analyze suppression of Notch signaling, […] were in cultured for 1 hour in a 10% FBS-supplemented alpha-MEM medium pretreated with or without 50 μM of Notch-inhibiting DAPT (N—[N-(3,5-difluorophenacetyl)-1-alanyl]-S-phenylglycine t-butyl ester, Sigma), and then stimulated with 25 ng/mL FGF4 for 3 days.

hPDCs [2] = assay: Suppression of FGF4 downstream signaling (ERK, JNK) in hPDCs
Description: […] To analyze suppression of Notch signaling, ASCs were in cultured for 1 hour in a 10% FBS-supplemented alpha-MEM medium pretreated with or without 50 μM of Notch-inhibiting DAPT (N—[N-(3,5-difluorophenacetyl)-1-alanyl]-S-phenylglycine t-butyl ester, Sigma), and then stimulated with 25 ng/mL FGF4 for 3 days.
Cells were first fixed in 4% PFA at room temperature for 15 minutes, and then permeabilized with 0.1% Triton X-100 for 20 minutes, followed by blocking with 10% normal goat serum (NGS). The following primary antibodies were used: anti-neuron classIII β-tubulin (Tuji), -Nestin (Covance), -Ki-67 (Novocastra), -SOX2, -NANOG, KLF4, Brachyury/Bry (all from Abcam), OCT3/4, GATA4 (all from Santa Cruz). Cells were incubated with Alexa Fluor 488 or 594-conjugated antibody (Molecular Probes) at room temperature for 1 hour, and to examine nuclei, cells were stained with 4′, 6-diamino-2-phenylindole (DAPI, 2 mg/mL in PBS). A cover-slip was sealed to a glass slide. Cells were visualized by a fluorescence microscope or a confocal fluorescence microscope (LSM 510 confocal microscope, Zeiss).

TGF-β1 mRNA = assay: TGF-β1 gene silencing by siRNA in PDCs
From the text: Using the human nucleotide sequences for TGF-β1 mRNA obtained from GenBank (GI:260655621) and referring to the design strategy of siRNA, two pairs of 21-bp reverse repeat sequences targeting TGF-β1 mRNA were synthesized by Bioneer (Seoul, Korea). siRNA targeted forward: 5′. CAGAGUACACACAGCAUAU-3′(1243-1261) (SEQ ID NO: 31); reverse, 5′-AUAUGCUGUGUGUACUCUG-3′(1261-1243) (SEQ ID NO: 32) of the TGF-β coding sequence. siRNA (at a final concentration of 100 pmol) was transfected with Upofectamine 2000 (Invitrogen, Gaithersburg, Md.) according to the manufacturer's instructions. The efficacy of TGF-β1 gene silencing was assessed by quantitative real-time PCR and Western blotting.

hPDCs [3] = assay: Neural induction of hPDCs by FGF4; details: 3 days
Description: as §1
Immunoblotting analysis: Cells were washed with cold PBS, and lysed with a lysis buffer containing a protease inhibitor cocktail (Pierce). A total cell lysate was normalized with a Bradford reagent (Bio-Rad), and 30˜50 μg of the cell lysate was applied to 8˜12% SDS-PAGE and transferred onto a PVDF membrane (Milipore). The membrane was blocked with TBS-T (50 mM Tris-HCl, pH 7.6, 150 mM NaCl, 0.05% Tween-20) containing 5% skim milk (Becton Dickinson), and examined with respective antibodies. An immune reaction was performed by using an ECL Western Blotting system (Millipore, Amersham). […]
Cells were first fixed in 4% PFA at room temperature for 15 minutes, and then permeabilized with 0.1% Triton X-100 for 20 minutes, followed by blocking with 10% normal goat serum (NGS). […] Cells were visualized by a fluorescence microscope or a confocal fluorescence microscope (LSM 510 confocal microscope, Zeiss).

**Q.** With `C[C@H](NC(=O)Cc1cc(F)cc(F)c1)C(=O)N[C@H](C(=O)OC(C)(C)C)c1ccccc1` [DAPT, N—[N-(3,5-difluorophenacetyl)-1-alanyl]-S-phenylglycine t-butyl ester] as the molecule, how does the “DLL1, Nestin, and TUJ1 gene expression” value (hPDCs [1]; compared with DMSO-treated cells, HD culture with FGF4) read?
**A.** significantly low levels

**Q.** What does the source list for `Oc1c2ccccc2c2c3c(cccc13)N=N2` [SP600125]?
**A.** % Ki-67 cells in total DAPI+ cells (hPDCs [2]; SP600125): 37.53±1.89%; Nestin+ total cells (hPDCs [2]; SP600125, FGF4, 72 hours): 48.47±3.07

**Q.** What does the source list for `N#CC(=C(/N)Sc1ccccc1N)/C(C#N)=C(\N)Sc1ccccc1N` [U0126]?
**A.** % Ki-67+ cells in total DAPI+ cells (hPDCs [2]; 5 mM U0216): 64.46±2.14%; Nestin+ total cells (hPDCs [2]; 5 mM U0216, FGF4, 72 hours): 47.61±3.46; Nestin protein levels (hPDCs [2]; FGF4-treated hPDCs, immunoblotting): decrease in Nestin protein levels

**Q.** Which “PEDF and Ang-1 expressions” value (TGF-β1 mRNA; after TGF-β siRNA transfection) does the source give for “TGF-β siRNA: siRNA targeting TGF-β1 mRNA, SEQ ID NO: 31 and 32, synthesized by Bioneer (chain 1 CAGAGUACACACAGCAUAU; chain 2 AUAUGCUGUGUGUACUCUG; listed as RNA, chemistry not given here)” here?
**A.** no changes

**Q.** And the “decrease of TGF-β expression” value (TGF-β1 mRNA; quantitative real-time PCR, compared with control PDCs)?
**A.** 80-90%

B1: DLL1-FLAG: recombinant DLL1 protein (protein, UniProt O00548 18-545, looked up)
extracellular domain: QVWSSGVFELKLQEFVNKKGLLGNRNCCRGGAGPPPCACRTFFRVCLKHYQASVSPEPPCTYGSAVTPVLGVDSFSLPDGGGADSAFSNPIRFPFGFTWPGTFSLIIEALHTDSPDDLATENPERLISRLATQRHLTVGEEWSQDLHSSGRTDLKYSYRFVCDEHYYGEGCSVFCRPRDDAFGHFTCGERGEKVCNPGWKGPYCTEPICLPGCDEQHGFCDKPGECKCRVGWQGRYCDECIRYPGCLHGTCQQPWQCNCQEGWGGLFCNQDLNYCTHHKPCKNGATCTNTGQGSYTCSCRPGYTGATCELGIDECDPSPCKNGGSCTDLENSYSCTCPPGFYGKICELSAMTCADGPCFNGGRCSDSPDGGYSCRCPVGYSGFNCEKKIDYCSSSPCSNGAKCVDLGDAYLCRCQAGFSGRHCDDNVDDCASSPCANGGTCRDGVNDFSCTCPPGYTGRNCSAPVSRCEHAPCHNGATCHERGHRYVCECARGYGGPNCQFLLPELPPGPAVVDLTEKLEGQGGPFPW
modifications: extracellular domain FLAG tag
notes: recombinant DLL1 protein
**Q.** Which “mRNA levels of DLL1, Nestin, and TUJ1” value (hPDCs [1]; three days with FGF4 in hPDC cultures) does the source give for B1 here?
**A.** up-regulated

B2: FGF4: growth factor (R&D Systems) tested for neural induction of hPDCs (protein, UniProt P08620 31-206, looked up)
Fibroblast growth factor 4: APTAPNGTLEAELERRWESLVALSLARLPVAAQPKEAAVQSGAGDYLLGIKRLRRLYCNVGIGFHLQALPDGRIGGAHADTRDSLLELSPVERGVVSIFGVASRFFVAMSSKGKLYGSPFFTDECTFKEILLPNNYNAYESYKYPGMFIALSKNGKTKKGNRVSPTMKVTHFLPRL
**Q.** B2 was tested. Which “expression levels of Nestin and Musashi1” value (hPDCs [3]; 25 ng/mL FGF4 vs 10 ng/mL EGF or 10 ng/mL bFGF) did it give?
**A.** much higher

**Q.** And the “mRNA expression level of Nestin” value (hPDCs [3]; 25 ng/mL among 10, 25, 50 ng/mL)?
**A.** highest mRNA expression level of Nestin
